Among the data in patent US8481538B2, “Heterocyclic inhibitors of c-Met and uses thereof” (Vertex Pharmaceuticals Incorporated, priority 2006, dated 2013) are Ki values, retold here.

Sequence of c-Met (P08581 25-1390): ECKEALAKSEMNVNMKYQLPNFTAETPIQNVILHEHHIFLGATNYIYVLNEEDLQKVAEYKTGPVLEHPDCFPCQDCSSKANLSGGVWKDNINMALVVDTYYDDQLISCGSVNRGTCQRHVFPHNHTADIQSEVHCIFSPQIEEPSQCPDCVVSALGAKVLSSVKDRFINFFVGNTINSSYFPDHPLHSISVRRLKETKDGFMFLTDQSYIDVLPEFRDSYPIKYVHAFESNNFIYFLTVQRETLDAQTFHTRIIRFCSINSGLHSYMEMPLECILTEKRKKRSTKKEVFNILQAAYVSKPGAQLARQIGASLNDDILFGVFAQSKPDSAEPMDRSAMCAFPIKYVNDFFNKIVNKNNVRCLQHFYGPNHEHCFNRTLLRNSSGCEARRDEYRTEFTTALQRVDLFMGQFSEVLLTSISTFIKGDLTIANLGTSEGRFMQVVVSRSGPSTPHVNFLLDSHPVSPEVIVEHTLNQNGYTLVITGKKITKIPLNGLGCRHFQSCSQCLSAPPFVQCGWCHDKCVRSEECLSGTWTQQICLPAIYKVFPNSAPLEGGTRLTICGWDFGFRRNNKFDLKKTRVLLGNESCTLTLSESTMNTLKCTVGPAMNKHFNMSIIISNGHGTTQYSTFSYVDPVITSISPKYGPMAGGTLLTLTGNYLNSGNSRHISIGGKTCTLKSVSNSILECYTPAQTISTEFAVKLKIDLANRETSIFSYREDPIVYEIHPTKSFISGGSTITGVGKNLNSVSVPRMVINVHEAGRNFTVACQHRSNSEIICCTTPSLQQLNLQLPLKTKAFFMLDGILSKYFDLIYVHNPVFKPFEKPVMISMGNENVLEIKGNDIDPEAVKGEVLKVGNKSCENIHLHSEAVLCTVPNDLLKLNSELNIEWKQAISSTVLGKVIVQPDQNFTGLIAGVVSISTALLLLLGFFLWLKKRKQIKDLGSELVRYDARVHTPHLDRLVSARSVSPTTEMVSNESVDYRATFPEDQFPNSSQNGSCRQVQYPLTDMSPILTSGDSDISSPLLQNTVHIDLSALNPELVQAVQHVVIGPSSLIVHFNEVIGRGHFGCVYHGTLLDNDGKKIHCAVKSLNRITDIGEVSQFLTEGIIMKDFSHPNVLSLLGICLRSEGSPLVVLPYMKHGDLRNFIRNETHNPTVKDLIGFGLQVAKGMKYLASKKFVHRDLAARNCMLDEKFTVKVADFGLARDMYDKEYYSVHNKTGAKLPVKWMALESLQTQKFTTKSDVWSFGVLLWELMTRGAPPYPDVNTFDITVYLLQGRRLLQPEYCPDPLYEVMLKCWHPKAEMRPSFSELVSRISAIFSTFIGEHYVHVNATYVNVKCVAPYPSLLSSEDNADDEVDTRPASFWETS

The target in this experiment is c-Met (Homo sapiens, UniProt P08581). Briefly: Ki determination for the inhibition of c-Met (standard radiometric kinase assay). Format: biochemical. To be noted: radiometric 33P-ATP assay, 1.0 nM c-Met, 35 μM ATP, 0.5 mg/mL polyE4Y, competitive tight-binding fit. How it is done:
Ki Determination for the Inhibition of c-Met
Compounds of the invention were screened for their ability to inhibit c-Met kinase activity using a standard radiometric assay. Briefly, in this kinase assay the transfer of the terminal ^33P-phosphate in ^33P-ATP to substrate polyE4Y is interrogated. The assay was carried out in 96-well plates to a final volume of 100 μL per well containing 1.0 nM c-Met, 100 mM HEPES (pH 7.5), 10 mM MgCl2, 25 mM NaCl, 0.01% BSA, 1 mM DTT, 0.5 mg/mL polyE4Y, and 35 μM ATP. Accordingly, compounds of the invention were dissolved in DMSO to make 10 mM initial stock solutions. Serial dilutions in DMSO were then made to obtain the final solutions for the assay. A 1.5 μL aliquot of DMSO or inhibitor in DMSO was added to each well. The reaction was initiated by the addition of ^33P-ATP and polyE4Y (obtained from Sigma). After 20 min, the reaction was quenched with 50 μL of 30% trichloroacetic acid (TCA) containing 4 mM ATP. The reaction mixture was transferred to the 0.66 mm GF filter plates (Corning) and washed three times with 5% TCA. Following the addition of 50 μL of Ultimate Gold™ high efficiency scintillant (Packard Bioscience), the samples were counted in a Packard TopCount NXT Microplate Scintillation and Luminescence Counter (Packard BioScience). The Ki values were calculated using Microsoft Excel Solver macros to fit the data to the kinetic model for competitive tight-binding inhibition.
The term Ki denotes a measure of affinity in units of concentration, obtained from inhibition or displacement. On to `C[C@@H](NC(=O)c1nc(-c2cccc(C3CCNCC3)c2)cnc1N)c1nnc2ccc(Nc3cccc(Cl)c3)nn12` [Compound 77], for which the Ki is at most 250 nM.
In the case of `C[C@@H](NC(=O)c1nc(C#N)cnc1N)c1nnc2ccc(Nc3cccc(Cl)c3)nn12` [Compound 38] it was at most 250 nM.
Take `C[C@@H](NC(=O)c1nc(-c2ccccc2)cnc1N)c1nnc2sc(N)nn12` [Compound 74]: the Ki was 250 to 2500 nM.
The figure for `CC(=O)Nc1ccc(-c2cnc(N)c(C(=O)N[C@H](C)c3nnc4ccc(Nc5cccc(Cl)c5)nn34)n2)cc1` [Compound 22] is at most 250 nM; for `C[C@@H](NC(=O)c1nc(C#Cc2ccccc2)cnc1N)c1nnc2ccc(Nc3cccc(Cl)c3)nn12` [Compound 48] it is 250 to 2500 nM.
The figure for `CN(Cc1nnc2ccc(Nc3cccc(Cl)c3)nn12)C(=O)c1cccnc1` [Compound 12] is over 2500 nM; for `C[C@@H](NC(=O)c1nc(C2=CCCC2)cnc1N)c1nnc2ccc(Nc3cccc(Cl)c3)nn12` [Compound 33] it is at most 250 nM.
As to `C[C@@H](NC(=O)c1nc(-c2ccncc2)cnc1N)c1nnc2ccc(Nc3cccc(Cl)c3)nn12` [Compound 42], the Ki is at most 250 nM.
For `C#Cc1cnc(N)c(C(=O)N[C@H](C)c2nnc3ccc(Nc4cccc(Cl)c4)nn23)n1` [Compound 36], the Ki is at most 250 nM.
The figure for `CC[C@@H](NC(=O)c1nc(-c2ccccc2)cnc1N)c1nnc2ccc(Nc3cccc(Cl)c3)nn12` [Compound 34] is 250 to 2500 nM; for `CC(=O)Nc1ccc(-c2cnc(N)c(C(=O)N[C@H](C)c3nnc4ccc(Nc5cccc(Cl)c5)nn34)c2)cc1` [Compound 24] it is at most 250 nM; for `CNCc1ccc(-c2cnc(N)c(C(=O)N[C@H](C)c3nnc4ccc(Nc5cccc(Cl)c5)nn34)n2)cc1` [Compound 78] it is at most 250 nM.
The figure for `C[C@@H](NC(=O)c1cc(Br)cnc1N)c1nnc2ccc(Nc3cccc(Cl)c3)nn12` [Compound 17] is 250 to 2500 nM; for `C[C@@H](NC(=O)c1nc(C#CCCO)cnc1N)c1nnc2ccc(Nc3cccc(Cl)c3)nn12` [Compound 44] it is at most 250 nM; for `C[C@@H](NC(=O)c1nc(-c2cnn(C)c2)cnc1N)c1nnc2ccc(Nc3cccc(Cl)c3)nn12` [Compound 27] it is at most 250 nM.
The compound `CN(Cc1cccnc1N)Cc1nnc2ccc(Nc3cccc(Cl)c3)nn12` [Compound 11, N-(3-chlorophenyl)-3-(2-(N-((2-aminopyridin-3-yl)methyl)-N-(methyl)amino)methyl)-[1,2,4]triazolo[4,3-b]pyridazin-6-amine] yielded a Ki of 250 to 2500 nM.
Turning to `C[C@@H](NC(=O)c1nccnc1N)c1nnc2ccc(Nc3cccc(Cl)c3)nn12` [Compound 14, N—((R)-1-(6-(3-chlorophenylamino)-[1,2,4]triazolo[4,3-b]pyridazin-3-yl)ethyl)-3-aminopyrazine-2-carboxamide], the Ki is at most 250 nM.
The figure for `CCN(CC)CC#Cc1cnc(N)c(C(=O)N[C@H](C)c2nnc3ccc(Nc4cccc(Cl)c4)nn23)n1` [Compound 47] is at most 250 nM; for `Clc1cccc(Nc2ccc3nnc(CNc4n[nH]c5ncccc45)n3n2)c1` [Compound 20] it is at most 250 nM; for `CC(=O)Nc1cccc(-c2cnc(N)c(C(=O)N[C@H](C)c3nnc4ccc(Nc5cccc(Cl)c5)nn34)n2)c1` [Compound 58] it is at most 250 nM.
Turning to `CCOc1ccc2nnc([C@@H](C)NC(=O)c3nc(-c4ccc(CN5CCCC5)cc4)cnc3N)n2n1` [Compound 71], the Ki lay within 250 to 2500 nM.
In the case of `C[C@@H](NC(=O)c1nc(-c2cccs2)cnc1N)c1nnc2ccc(Nc3cccc(Cl)c3)nn12` [Compound 29] it was at most 250 nM.
In the case of `C[C@@H](NC(=O)c1nc(-c2ccccc2)cnc1N)c1nnc2ccc(Cl)nn12` [Compound 64], the Ki lay within 250 to 2500 nM.
The figure for `CC(C)[C@@H](NC(=O)c1nc(-c2ccccc2)cnc1N)c1nnc2ccc(Nc3cccc(Cl)c3)nn12` [Compound 35] is over 2500 nM; for `C[C@@H](NC(=O)c1nc(C#Cc2ccncc2)cnc1N)c1nnc2ccc(Nc3cccc(Cl)c3)nn12` [Compound 57] it is 250 to 2500 nM; for `C[C@@H](NC(=O)c1nc(Br)cnc1N)c1nnc2ccc(Nc3cccc(Cl)c3)nn12` [Compound 18] it is 250 to 2500 nM.
In the case of `C[C@@H](NC(=O)c1nc(-c2ccc(CN3CCCC3)cc2)cnc1N)c1nnc2ccc(Nc3cccc(Cl)c3)nn12` [Compound 55] it was at most 250 nM; in that of `C[C@@H](NC(=O)c1cc(-c2cnn(C)c2)cnc1N)c1nnc2sc(Nc3cccc(Cl)c3)nn12` [Compound 63], 250 to 2500 nM; in that of `C[C@@H](NC(=O)c1nc(C#CCC2CCCC2)cnc1N)c1nnc2ccc(Nc3cccc(Cl)c3)nn12` [Compound 49], 250 to 2500 nM.
In the case of `C[C@@H](NC(=O)c1nc(-c2ccsc2)cnc1N)c1nnc2ccc(Nc3cccc(Cl)c3)nn12` [Compound 31] it was at most 250 nM.
On to `C[C@@H](NC(=O)c1nc(-c2cccnc2)cnc1N)c1nnc2ccc(Nc3cccc(Cl)c3)nn12` [Compound 41], for which the Ki was at most 250 nM.
